Assay results as given in PubChem BioAssay (NCI).
Values joined by “and” are separate entries in the source; they are usually repeats but may differ in a detail not shown here. Equal values may be shown once.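 Cells were grown in 96-well plates and exposed to each compound for 48 hours at five concentrations; endpoints were interpolated linearly between bracketing concentrations, or set to the highest concentration if not reached. Here, GI50 denotes the concentration required for 50% inhibition of growth. TGI: concentration producing complete growth inhibition.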

Assays:
Assay in all cases: NCI anticancer screen, dose series, 48 h
LOX IMVI melanoma = tested on: LOX IMVI melanoma
NCI-H522 lung = tested on: NCI-H522 lung
NCI-H23 lung = tested on: NCI-H23 lung
SF-539 CNS = tested on: SF-539 CNS
DU-145 prostate = tested on: DU-145 prostate
HCT-116 colon = tested on: HCT-116 colon
HCT-15 colon = tested on: HCT-15 colon
MOLT-4 leukemia = tested on: MOLT-4 leukemia
SN12C renal = tested on: SN12C renal
DMS 273 small cell lung = tested on: DMS 273 small cell lung

SMILES	TGI (LOX IMVI melanoma)	TGI (NCI-H522 lung)	TGI (NCI-H23 lung)	TGI (SF-539 CNS)	TGI (DU-145 prostate)	TGI (HCT-116 colon)	TGI (HCT-15 colon)	TGI (MOLT-4 leukemia)	TGI (SN12C renal)	GI50 (NCI-H522 lung)	GI50 (NCI-H23 lung)	TGI (DMS 273 small cell lung)	GI50 (SF-539 CNS)	GI50 (MOLT-4 leukemia)	GI50 (SN12C renal)	GI50 (LOX IMVI melanoma)	GI50 (DU-145 prostate)	GI50 (HCT-116 colon)	GI50 (HCT-15 colon)
COC(=O)CCCc1nc2ccccc2nc1N=Nc1ccccc1	31.3 µM	68.5 µM	> 100 µM	> 100 µM	> 100 µM	> 100 µM	> 100 µM	26.3 µM	> 100 µM										
CCN(CC)CC[n+]1ccc2c(C)c3[nH]c4ccccc4c3c(C)c2c1	2.13 µM and 3.73 µM and 16.3 µM	1.36 µM and 2.58 µM and 1.87 µM	2.22 µM and 2.24 µM and 4.13 µM	1.66 µM and 5.78 µM and 2.12 µM	3.72 µM		80.5 µM and 110 µM	1.59 µM and 6.02 µM and 3.27 µM	1.9 µM and 0.925 µM and 2.68 µM	247 nM	394 nM	1530 nM and 1740 nM	921 nM	274 nM	195 nM				
CCOC(=O)c1cnc2n(c1=O)[C@H]1CCCC[C@@H]1N2	> 100 µM	> 100 µM	> 100 µM	> 100 µM	> 100 µM	> 100 µM	> 100 µM	> 100 µM	> 100 µM										
NCCCNCCSP(=O)(O)O	> 750 µM	738 µM	> 750 µM	> 750 µM		> 750 µM	> 645 µM	> 750 µM	> 750 µM			> 750000 nM							
COC1OC(C)/C(=N/O)C2OC(C)(C)OC12 (configuration not stated)	> 100 µM	> 100 µM	> 100 µM	> 100 µM	> 100 µM	> 100 µM	> 100 µM	> 100 µM	> 100 µM										
Cc1oc(N)c(S(=O)(=O)/C(C#N)=C/c2ccccc2[N+](=O)[O-])c1C	28.5 µM	41 µM	79.4 µM	61.4 µM	> 100 µM	78.5 µM	> 100 µM	62.5 µM	47.8 µM										
O=[N+]([O-])/C(Cl)=C(\NCCO)C(Cl)=C(Cl)Cl	> 100 µM	53 µM	> 100 µM	> 100 µM	> 100 µM	81.5 µM	76.8 µM	63.6 µM	> 100 µM										
O=C(NC1=C(Cl)C(=O)c2ccccc2C1=O)C(=O)c1c(O)c2ccccc2oc1=O	> 45.9 µM	16.1 µM	4.38 µM	11.1 µM	2.93 µM	7.47 µM	13.7 µM	18 µM	14.3 µM										
COC(=O)CCC(NC(=S)N/N=C(\C)c1cccs1)C(=O)OC (configuration not stated)	> 100 µM	> 100 µM	> 100 µM	> 100 µM		> 100 µM	> 100 µM		> 100 µM			> 100000 nM							
C[C@@H]1C[C@@H]2OC(=O)[C@]3(C)[C@H]2[C@@H](OC3(C)O)[C@]2(C)C(=O)C=C[C@@H]12 (some centres not stated)	43 µM	23.8 µM	70 µM	> 100 µM	> 100 µM	37.6 µM	30.2 µM	39.7 µM	38.1 µM										
O=C(CCC(NC(=O)OCc1ccccc1)C(=O)OCc1ccccc1)Nc1cccc(OCc2ccccc2)c1 (configuration not stated)	38.3 µM	70.1 µM	57.1 µM	35 µM	79.6 µM	36.4 µM	38.8 µM	> 100 µM	46 µM										
C=CC(C)(C)/C(=C\CO[Si](C(C)C)(C(C)C)C(C)C)C(=O)N(C)c1ccccc1I	27.4 µM	19 µM	23.6 µM	33 µM	29.4 µM	17 µM	30.8 µM	25.2 µM	29.7 µM										
O=C(NCc1cn(Cc2cccc(Oc3ccccc3)c2)nn1)c1cccnc1NCc1ccc(Cl)cc1	> 100 µM	5.68 µM	> 100 µM	5.17 µM	> 100 µM	9.4 µM	> 100 µM	8.76 µM	> 100 µM	2180 nM	3660 nM		2240 nM	3280 nM	3440 nM	3.9 µM	4 µM	3.18 µM	3.39 µM
Nc1ccnc2c1ncn2[C@H]1C[C@H](O)[C@@H](CO)O1	> 100 µM	> 100 µM	> 100 µM	> 100 µM	> 100 µM	> 100 µM	> 100 µM	> 100 µM	> 100 µM										
Cc1cccc(NC(=S)Nc2cccc(Cl)c2)n1	> 100 µM	> 100 µM	> 100 µM	> 100 µM	> 100 µM	> 100 µM	> 100 µM	> 100 µM	> 100 µM										
C[C@]12CC[C@H]3[C@@H](CC=C4C[C@@H](O)CC[C@@]43C)[C@@H]1C/C(=C\c1ccc([N+](=O)[O-])cc1)[C@@H]2O	> 100 µM	32.7 µM	51.7 µM	34.5 µM	23 µM	14 µM	> 100 µM	> 100 µM	22.9 µM										
